Laboratory results published in US9206236B2, “Peptides for treating cancer” (Gene Signal International SA, priority 2010, dated 2015).
“Also recorded” adds a separate entry of the source. Where a SMILES comes first, the peptide text is derived from it. [ ]: non-standard residue; d: D form. pY = N[C@@H](Cc1ccc(OP(=O)(O)O)cc1)C(=O)O

How the values were obtained:
[1] = test system: mTOR; test: mTOR status in HMEC after incubation with peptides (anti-mTor antibody Ser2448); type: cell-based, human
Protocol: (§1) Human EC grown in EGM-2MV (80% confluence) were incubated with the peptides of the invention or vehicle for the indicated time, washed three times in cold PBS and directly lysed in 2 ml of ice-cold lysis buffer (10 mM Tris pH 7.5, 150 mM NaCl, 1 mM PMSF, 0.5 μg/ml leupeptin, 1 μg/ml pepstatin A, and 1 μg/ml aprotinin) by incubation for 30 min at 4° C. Cell lysate were spun at […] for 10 min, insoluble materials were discarded, and protein contents measured by Bradford assay of supernatants were adjusted. Cell lysate (1 ml) was precleared with 25 μl of protein G-plus agarose beads (Santa Cruz) for 30 min, and proteins were then immunoprecipitated by adding 2 μg of the indicated antibody and incubated for 1 hr. The immunocomplex was pulled down with protein G-plus agarose beads and the beads were washed three times with lysis buffer. The immunoprecipitates were separated by NuPAGE® 4-12% Bis-Tris gel electrophoresis under reducing conditions, transferred to PVDF membrane (Novex System, Invitrogen), and the membrane was blocked with 5% (w/v) non-fat milk in TBS containing 0.1% v/v Tween-20 for 1 hr.
The status of mTOR in the HMEC following incubation with peptides GS-0 and GS-1 was investigated.

[2] = target: T1, recruitment of the regulatory subunit (p85) of the enzyme PI-3K by IRS-1 (Homo sapiens, UniProt P27986); test: Recruitment of p85 of PI-3K by IRS-1 (IRS-1 immunoprecipitation, anti-p85 immunoblot) in HMEC; type: cell-based; details: final concentration of peptide 500 μg/ml
T1 construct: endogenous in cells; host or cells: human microvascular endothelial cells (HMEC)
T1 sequence (P27986 whole entry): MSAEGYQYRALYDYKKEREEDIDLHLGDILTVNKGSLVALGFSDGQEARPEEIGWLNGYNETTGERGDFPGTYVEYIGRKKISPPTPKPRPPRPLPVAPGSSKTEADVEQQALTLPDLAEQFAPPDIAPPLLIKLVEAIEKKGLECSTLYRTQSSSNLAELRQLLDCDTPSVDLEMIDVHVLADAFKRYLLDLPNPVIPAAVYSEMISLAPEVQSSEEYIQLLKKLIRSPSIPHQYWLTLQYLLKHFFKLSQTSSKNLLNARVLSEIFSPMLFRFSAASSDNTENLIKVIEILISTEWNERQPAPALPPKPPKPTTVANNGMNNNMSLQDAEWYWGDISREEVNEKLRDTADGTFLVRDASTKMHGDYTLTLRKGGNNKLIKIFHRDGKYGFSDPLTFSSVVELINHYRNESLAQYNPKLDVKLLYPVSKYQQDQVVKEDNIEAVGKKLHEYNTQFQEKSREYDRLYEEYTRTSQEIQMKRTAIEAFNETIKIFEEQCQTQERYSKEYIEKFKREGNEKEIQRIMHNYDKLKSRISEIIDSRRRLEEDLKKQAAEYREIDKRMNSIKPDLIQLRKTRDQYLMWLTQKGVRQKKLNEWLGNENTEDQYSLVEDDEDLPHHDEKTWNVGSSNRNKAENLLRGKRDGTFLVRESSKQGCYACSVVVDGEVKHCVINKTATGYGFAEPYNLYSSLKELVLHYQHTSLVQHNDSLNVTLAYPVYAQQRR
Protocol: as §1
As it is widely admitted that the tyrosine phosphorylation of IRS-1 leads to its association with the regulatory subunit (p85) of the enzyme PI-3K, and this event lead to important increases in the enzymatic activity of this later, we have investigated the influence of the tyrosine phosphorylated and non phosphorylated peptides onto the recruitment of the regulatory subunit (p85) of the enzyme PI-3K by IRS-1. For that, human microvascular endothelial cells (HMEC) were incubated with the tyrosine phosphorylated and non phosphorylated peptides (final concentration of peptide 500 μg/ml) followed by cells lysis and immuoprecipitation of the protein IRS-1. The immunoprecipitates were then resolved in SDS-PAGE, proteins were transferred to membranes, and the membranes were immunoblotted with an anti-p85 PI3K monoclonal antibody.

[3] = Body weight and toxicity of mice bearing NCI-H460 tumors (Example 3); type: in vivo
Protocol: All experiments were reviewed by the Genopole's institutional animal care and use committee and were performed in accordance with institutional guidelines for animal care. Female BALB/c nu/nu mice (n=30) were used at 5-6 weeks of age. The animals were housed in laminar air-flow cabinets under pathogen-free conditions with a 12 h light/12 h dark schedule, and fed autoclaved standard chow and water ad libitum. […] Tumor cells (10^7 cells in 200 μl of HBSS) were injected subcutaneously into the right flanks of mice. […] At tumor volume about 150 mm^3, animals were randomized, and separated into five groups of five animals. Control mice (group 1) were intraperitoneally injected with vehicle (10% DMSO in buffer saline) every day. GS-0 was dissolved in vehicle and intraperitoneally injected (group 2) every day (12 injections). GS-2 was dissolved in vehicle and intraperitoneally injected (group 3) every day (12 injections). Tumor volume and body weight were measured every other day over the treatment period (12 days).

[4] = Solubility of peptides in 10% DMSO in PBS; type: physicochemical; details: 1 mg of peptide/ml of 10% DMSO in PBS
Protocol: GS-1 as well as the control peptide GS-0 were solubilized in DMSO and the resulting solutions were diluted 10 times with phosphate buffer saline (PBS) to obtain a concentration of 1 mg of peptide/ml of 10% DMSO in PBS. At this concentration, all peptides were soluble in 10% DMSO.
GS-2 as well as the control peptide GS-0 were solubilized in DMSO and the resulting solutions were diluted 10 times with phosphate buffer saline (PBS) to obtain a concentration of 1 mg of peptide/ml of 10% DMSO in PBS. At this concentration, all peptides were soluble in 10% DMSO.

[5] = test system: human microvascular endothelial cells (HMEC); test: In vitro angiogenesis assay (Matrigel tube formation); type: cell-based; details: 500 μg/ml final concentration of peptide, images at 18 h
Protocol: Angiogenesis of human microvascular endothelial cells (HMEC) was induced in vitro using a Matrigel assay described by Al-Mahmood et al (2009, JPET, 2009; 58:933). This method is based on the differentiation of endothelial cells to form capillary structures on a Matrigel Matrix. Matrigel is prepared the Engelbreth-Holm-Swarm (EHS) mouse tumor, which represents a complex mixture of basement membrane proteins including type IV collagen, entactin, proteo-heparan sulfate and other growth factors.
Briefly, 250 μl of Matrigel were transferred to each well of a 24-well culture plate and incubated at 37° C. for 30 min to allow for the matrix solution to solidify. HMEC grown in complete growth medium EGM-2MV were harvested by trypsin, suspended in the same growth medium and 500 μl containing 70 000 cells were added on top of the solidified Matrigel in each well and in the presence or absence of peptide. Cells were maintained in a humidified atmosphere air containing 5% CO2 at 37° C. for 18-24 hrs. Endothelial tube formation was observed and photographed under an inverted light microscope.
The designed tyrosine phosphorylated and non phosphorylated peptides were tested for their influence onto the in vitro angiogenesis. The results of the in vitro angiogenesis assay were presented in FIG. 1, using HMEC and 500 μg/ml final concentration of each peptide.

[6] = test system: NCI-H460 tumors; test: NCI-H460 tumor xenograft in nude mice, tumor volume (Example 3); type: in vivo
Protocol: H460 cell line has cytology compatible with human Non-Small Cell Lung Cancer (NSCL). Cells were grown in MEM medium containing 10% FCS at 37° C., 5% CO2 humidified atmosphere. The absence of mycoplasms was confirmed by using the PCR Mycoplasma Detection kit (Takara). All experiments were reviewed by the Genopole's institutional animal care and use committee and were performed in accordance with institutional guidelines for animal care. Female BALB/c nu/nu mice (n=30) were used at 5-6 weeks of age. The animals were housed in laminar air-flow cabinets under pathogen-free conditions with a 12 h light/12 h dark schedule, and fed autoclaved standard chow and water ad libitum. The NCI-H460 human NSCL cell line was obtained from American Type Culture Collection (ATCC) were grown in RPMI medium 1640 supplemented with 1 μM sodium pyruvate. Tumor cells (10^7 cells in 200 μl of HBSS) were injected subcutaneously into the right flanks of mice. After engraftment, tumor volume was measured by Vernier callipers, and calculated as described in Balsam A et al. (Balsari A et al. (2004) Eur J Cancer 40: 1275-1281). At tumor volume about 150 mm^3, animals were randomized, and separated into five groups of five animals. Control mice (group 1) were intraperitoneally injected with vehicle (10% DMSO in buffer saline) every day. GS-0 was dissolved in vehicle and intraperitoneally injected (group 2) every day (12 injections). GS-2 was dissolved in vehicle and intraperitoneally injected (group 3) every day (12 injections). Tumor volume and body weight were measured every other day over the treatment period (12 days). GS-2 as well as the control peptide GS-0 were solubilized in DMSO and the resulting solutions were diluted 10 times with phosphate buffer saline (PBS) to obtain a concentration of 1 mg of peptide/ml of 10% DMSO in PBS. At this concentration, all peptides were soluble in 10% DMSO.

CSCC[C@H](NC(=O)[C@H](CC(N)=O)NC(=O)[C@H](CCSC)NC(=O)[C@H](Cc1ccc(OP(=O)(O)O)cc1)NC(=O)[C@H](CCC(=O)O)NC(C)=O)C(=O)N[C@@H](CC(=O)O)C(N)=O [GS-2, EpYMNMD] (Ac-E[pY]MNMD-NH2)
amounts of mTOR in HMEC relative to vehicle [1]: much less amounts of mTOR
influence onto the recruitment of the regulatory subunit (p85) of PI3K by IRS-1 [2]: moderate inhibitory effects
toxicity and body weight loss during treatment ([3]; 8 mg/kg intraperitoneally every day, 12 injections): No toxicity and no body weight loss
Mean body weight D1 ([3]; Table 3, 8 mg/kg i.p. daily, day 1, in g): 22.59
Mean body weight D3 ([3]; Table 3, 8 mg/kg i.p. daily, day 3, in g): 22.32
Mean body weight D5 ([3]; Table 3, 8 mg/kg i.p. daily, day 5, in g): 22.78
Mean body weight D7 ([3]; Table 3, 8 mg/kg i.p. daily, day 7, in g): 23.10
Mean body weight D9 ([3]; Table 3, 8 mg/kg i.p. daily, day 9, in g): 23.00
Mean body weight D11 ([3]; Table 3, 8 mg/kg i.p. daily, day 11, in g): 23.51
Mean body weight D13 ([3]; Table 3, 8 mg/kg i.p. daily, day 13, in g): 23.05
solubility in 10% DMSO [4]: soluble
in vitro angiogenesis-inhibitory activity [5]: have in vitro angiogenesis-inhibitory activities
influence on the in vivo growth of the tumor NCI-H460 (in words) ([6]; 8 mg/kg i.p. daily for 12 days): highly significant and potent influence; also recorded: statistically significant and potent anti-tumoral activity
mean tumor volume at the end of treatment ([6]; 8 mg/kg i.p. daily for 12 days, n=5): 297.28 ± 142.67 mm^3
Mean tumor volume D1 ([6]; Table 4, 8 mg/kg i.p. daily, day 1): 124 mm³
Mean tumor volume D3 ([6]; Table 4, 8 mg/kg i.p. daily, day 3): 129 mm³
Mean tumor volume D5 ([6]; Table 4, 8 mg/kg i.p. daily, day 5): 163 mm³
Mean tumor volume D7 ([6]; Table 4, 8 mg/kg i.p. daily, day 7): 174 mm³
Mean tumor volume D9 ([6]; Table 4, 8 mg/kg i.p. daily, day 9): 254 mm³
Mean tumor volume D11 ([6]; Table 4, 8 mg/kg i.p. daily, day 11): 297 mm³
Mean tumor volume D13 ([6]; Table 4, 8 mg/kg i.p. daily, day 13): 297 mm³
